Assay: xn = mol fraction of the nth substance listed
Settings: 101 kPa, Liquid; for speed of sound: Linear variable-path acoustic interferometer; for mass density: Vibrating tube method

NC1CCCCC1 [cyclohexylamine] + c1ccccc1
Settings | mass density [kg/m3] | speed of sound [m/s]
293.15 K, x1 = 0.0621 | 877.45 | 1328
293.15 K, x1 = 0.0938 | 876.73 | 1331
293.15 K, x1 = 0.1434 | 875.68 | 1335.6
293.15 K, x1 = 0.1546 | 875.47 | 1336.6
293.15 K, x1 = 0.2031 | 874.52 | 1341.3
293.15 K, x1 = 0.2475 | 873.73 | 1345.8
293.15 K, x1 = 0.2972 | 872.9 | 1350.9
293.15 K, x1 = 0.3472 | 872.15 | 1356.1
293.15 K, x1 = 0.3945 | 871.5 | 1361.2
293.15 K, x1 = 0.4786 | 870.45 | 1370.2
293.15 K, x1 = 0.4948 | 870.28 | 1372.1
293.15 K, x1 = 0.5013 | 870.2 | 1372.6
293.15 K, x1 = 0.5389 | 869.83 | 1376.9
293.15 K, x1 = 0.5396 | 869.83 | 1377
293.15 K, x1 = 0.5419 | 869.8 | 1377.1
293.15 K, x1 = 0.5927 | 869.3 | 1382.8
293.15 K, x1 = 0.6428 | 868.89 | 1388.4
293.15 K, x1 = 0.6927 | 868.55 | 1394.2
293.15 K, x1 = 0.7465 | 868.2 | 1400.3
293.15 K, x1 = 0.7962 | 867.93 | 1405.9
293.15 K, x1 = 0.8474 | 867.74 | 1411.9
293.15 K, x1 = 0.897 | 867.61 | 1418
293.15 K, x1 = 0.9485 | 867.49 | 1424.2
293.15 K, x1 = 1 | 867.39 | 1430.5
298.15 K, x1 = 0.0621 | 872.22 | 1304.7
298.15 K, x1 = 0.0938 | 871.52 | 1307.7
298.15 K, x1 = 0.1434 | 870.56 | 1312.3
298.15 K, x1 = 0.1546 | 870.34 | 1313.4
298.15 K, x1 = 0.2031 | 869.46 | 1318.1
298.15 K, x1 = 0.2475 | 868.71 | 1322.7
298.15 K, x1 = 0.2972 | 867.95 | 1327.9
298.15 K, x1 = 0.3472 | 867.25 | 1333.3
298.15 K, x1 = 0.3945 | 866.64 | 1338.4
298.15 K, x1 = 0.4786 | 865.69 | 1347.5
298.15 K, x1 = 0.4948 | 865.5 | 1349.2
298.15 K, x1 = 0.5013 | 865.45 | 1349.9
298.15 K, x1 = 0.5389 | 865.08 | 1354.3
298.15 K, x1 = 0.5396 | 865.08 | 1354.4
298.15 K, x1 = 0.5419 | 865.06 | 1354.6
298.15 K, x1 = 0.5927 | 864.62 | 1360.2
298.15 K, x1 = 0.6428 | 864.23 | 1365.8
298.15 K, x1 = 0.6927 | 863.88 | 1371.8
298.15 K, x1 = 0.7465 | 863.59 | 1378
298.15 K, x1 = 0.7962 | 863.33 | 1383.7
298.15 K, x1 = 0.8474 | 863.17 | 1389.9
298.15 K, x1 = 0.897 | 863.04 | 1396
298.15 K, x1 = 0.9485 | 862.94 | 1402.4
298.15 K, x1 = 1 | 862.85 | 1408.8
303.15 K, x1 = 0.0621 | 866.94 | 1281.5
303.15 K, x1 = 0.0938 | 866.31 | 1284.3
303.15 K, x1 = 0.1434 | 865.4 | 1289.2
303.15 K, x1 = 0.1546 | 865.2 | 1290.3
303.15 K, x1 = 0.2031 | 864.38 | 1295.1
303.15 K, x1 = 0.2475 | 863.69 | 1299.7
303.15 K, x1 = 0.2972 | 862.98 | 1305.2
303.15 K, x1 = 0.3472 | 862.36 | 1310.6
303.15 K, x1 = 0.3945 | 861.76 | 1315.6
303.15 K, x1 = 0.4786 | 860.88 | 1325
303.15 K, x1 = 0.4948 | 860.72 | 1326.9
303.15 K, x1 = 0.5013 | 860.67 | 1327.4
303.15 K, x1 = 0.5389 | 860.32 | 1331.8
303.15 K, x1 = 0.5396 | 860.32 | 1331.9
303.15 K, x1 = 0.5419 | 860.3 | 1332.1
303.15 K, x1 = 0.5927 | 859.9 | 1337.9
303.15 K, x1 = 0.6428 | 859.54 | 1343.5
303.15 K, x1 = 0.6927 | 859.24 | 1349.5
303.15 K, x1 = 0.7465 | 858.96 | 1355.6
303.15 K, x1 = 0.7962 | 858.72 | 1361.5
303.15 K, x1 = 0.8474 | 858.58 | 1367.9
303.15 K, x1 = 0.897 | 858.47 | 1374.1
303.15 K, x1 = 0.9485 | 858.38 | 1380.5
303.15 K, x1 = 1 | 858.31 | 1387.3
308.15 K, x1 = 0.0621 | 861.67 | 1258.4
308.15 K, x1 = 0.0938 | 861.08 | 1261.5
308.15 K, x1 = 0.1434 | 860.23 | 1266.2
308.15 K, x1 = 0.1546 | 860.04 | 1267.5
308.15 K, x1 = 0.2031 | 859.28 | 1272.5
308.15 K, x1 = 0.2475 | 858.65 | 1277.2
308.15 K, x1 = 0.2972 | 857.99 | 1282.6
308.15 K, x1 = 0.3472 | 857.38 | 1288.1
308.15 K, x1 = 0.3945 | 856.87 | 1293.2
308.15 K, x1 = 0.4786 | 856.07 | 1302.7
308.15 K, x1 = 0.4948 | 855.9 | 1304.6
308.15 K, x1 = 0.5013 | 855.87 | 1305.1
308.15 K, x1 = 0.5389 | 855.55 | 1309.4
308.15 K, x1 = 0.5396 | 855.55 | 1309.5
308.15 K, x1 = 0.5419 | 855.53 | 1309.8
308.15 K, x1 = 0.5927 | 855.17 | 1315.5
308.15 K, x1 = 0.6428 | 854.84 | 1321.3
308.15 K, x1 = 0.6927 | 854.58 | 1327.3
308.15 K, x1 = 0.7465 | 854.32 | 1333.5
308.15 K, x1 = 0.7962 | 854.16 | 1339.7
308.15 K, x1 = 0.8474 | 853.99 | 1345.9
308.15 K, x1 = 0.897 | 853.9 | 1352.2
308.15 K, x1 = 0.9485 | 853.83 | 1359
308.15 K, x1 = 1 | 853.76 | 1366
313.15 K, x1 = 0.0621 | 856.39 | 1235.4
313.15 K, x1 = 0.0938 | 855.84 | 1238.6
313.15 K, x1 = 0.1434 | 855.11 | 1243.5
313.15 K, x1 = 0.1546 | 854.94 | 1244.6
313.15 K, x1 = 0.2031 | 854.22 | 1249.7
313.15 K, x1 = 0.2475 | 853.65 | 1254.5
313.15 K, x1 = 0.2972 | 853.04 | 1260
313.15 K, x1 = 0.3472 | 852.51 | 1265.6
313.15 K, x1 = 0.3945 | 852.03 | 1270.9
313.15 K, x1 = 0.4786 | 851.24 | 1280.4
313.15 K, x1 = 0.4948 | 851.15 | 1282.3
313.15 K, x1 = 0.5013 | 851.07 | 1283
313.15 K, x1 = 0.5389 | 850.78 | 1287.3
313.15 K, x1 = 0.5396 | 850.78 | 1287.4
313.15 K, x1 = 0.5419 | 850.75 | 1287.7
313.15 K, x1 = 0.5927 | 850.43 | 1293.5
313.15 K, x1 = 0.6428 | 850.14 | 1299.4
313.15 K, x1 = 0.6927 | 849.92 | 1305.2
313.15 K, x1 = 0.7465 | 849.68 | 1311.7
313.15 K, x1 = 0.7962 | 849.53 | 1317.8
313.15 K, x1 = 0.8474 | 849.39 | 1324.1
313.15 K, x1 = 0.897 | 849.32 | 1330.5
313.15 K, x1 = 0.9485 | 849.27 | 1337.5
313.15 K, x1 = 1 | 849.23 | 1344.5
318.15 K, x1 = 0.0621 | 851.07 | 1212.6
318.15 K, x1 = 0.0938 | 850.53 | 1215.7
318.15 K, x1 = 0.1434 | 849.85 | 1220.9
318.15 K, x1 = 0.1546 | 849.69 | 1221.9
318.15 K, x1 = 0.2031 | 849.06 | 1227.1
318.15 K, x1 = 0.2475 | 848.53 | 1232
318.15 K, x1 = 0.2972 | 847.99 | 1237.5
318.15 K, x1 = 0.3472 | 847.44 | 1243.2
318.15 K, x1 = 0.3945 | 847.06 | 1248.6
318.15 K, x1 = 0.4786 | 846.39 | 1258.2
318.15 K, x1 = 0.4948 | 846.28 | 1260
318.15 K, x1 = 0.5013 | 846.24 | 1260.8
318.15 K, x1 = 0.5389 | 845.99 | 1265.3
318.15 K, x1 = 0.5396 | 845.99 | 1265.4
318.15 K, x1 = 0.5419 | 845.99 | 1265.7
318.15 K, x1 = 0.5927 | 845.7 | 1271.5
318.15 K, x1 = 0.6428 | 845.45 | 1277.4
318.15 K, x1 = 0.6927 | 845.29 | 1283.3
318.15 K, x1 = 0.7465 | 845.06 | 1289.9
318.15 K, x1 = 0.7962 | 844.93 | 1295.8
318.15 K, x1 = 0.8474 | 844.84 | 1302.4
318.15 K, x1 = 0.897 | 844.74 | 1308.8
318.15 K, x1 = 0.9485 | 844.71 | 1315.9
318.15 K, x1 = 1 | 844.68 | 1323.1
323.15 K, x1 = 0.0621 | 845.7 | 1190.1
323.15 K, x1 = 0.0938 | 845.26 | 1193.2
323.15 K, x1 = 0.1434 | 844.64 | 1198.3
323.15 K, x1 = 0.1546 | 844.5 | 1199.4
323.15 K, x1 = 0.2031 | 843.92 | 1204.6
323.15 K, x1 = 0.2475 | 843.45 | 1209.5
323.15 K, x1 = 0.2972 | 842.96 | 1215.1
323.15 K, x1 = 0.3472 | 842.52 | 1220.9
323.15 K, x1 = 0.3945 | 842.14 | 1226.2
323.15 K, x1 = 0.4786 | 841.55 | 1236.1
323.15 K, x1 = 0.4948 | 841.45 | 1237.9
323.15 K, x1 = 0.5013 | 841.42 | 1238.7
323.15 K, x1 = 0.5389 | 841.19 | 1243.1
323.15 K, x1 = 0.5396 | 841.19 | 1243.2
323.15 K, x1 = 0.5419 | 841.19 | 1243.5
323.15 K, x1 = 0.5927 | 840.94 | 1249.5
323.15 K, x1 = 0.6428 | 840.73 | 1255.5
323.15 K, x1 = 0.6927 | 840.66 | 1261.5
323.15 K, x1 = 0.7465 | 840.41 | 1268.1
323.15 K, x1 = 0.7962 | 840.3 | 1274.1
323.15 K, x1 = 0.8474 | 840.24 | 1280.6
323.15 K, x1 = 0.897 | 840.16 | 1287.1
323.15 K, x1 = 0.9485 | 840.16 | 1294.4
323.15 K, x1 = 1 | 840.14 | 1301.8

— the NIST ThermoML archive (doi:10.1016/j.tca.2012.08.011)
